The structures appear in SMILES notation. Calls of active or inactive are those of the source.

Data set [1] deals with Large T antigen (Simian virus 40, UniProt P03070). In kind it is functional, Betapolyomavirus macacae.
Data set [2] concerns P388/ADR. In words: cells. Format: functional. The note with it: Mus musculus.
Data set [3] has as its system SN12K1. In words: cells. Format: functional. The note with it: Homo sapiens.
The subject of data set [4] is P388. Kind of data set: cells. Format: functional. The note with it: Mus musculus.
Data set [5] concerns the target Glyceraldehyde-3-phosphate dehydrogenase (Homo sapiens, UniProt P04406).
Data set [6] deals with T1, Calpain-2 catalytic subunit (Sus scrofa, UniProt P43367).
T1 sequence (P43367 whole entry): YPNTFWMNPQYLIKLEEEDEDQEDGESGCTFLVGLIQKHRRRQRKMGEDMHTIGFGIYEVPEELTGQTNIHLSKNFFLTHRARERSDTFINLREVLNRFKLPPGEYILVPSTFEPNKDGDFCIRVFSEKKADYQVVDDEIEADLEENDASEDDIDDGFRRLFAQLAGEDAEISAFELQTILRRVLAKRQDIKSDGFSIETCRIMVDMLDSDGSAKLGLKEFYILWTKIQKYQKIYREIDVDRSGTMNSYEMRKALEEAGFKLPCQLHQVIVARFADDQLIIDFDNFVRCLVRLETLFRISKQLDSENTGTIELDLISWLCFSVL
In words: pig calpain II inhibitor potency, dose response, biochemical, fluorogenic peptide substrate (AID 1420). In kind it is functional.

Data set [7] concerns the target T2, High affinity choline transporter 1 (Homo sapiens, UniProt Q9GZV3).
T2 sequence (Q9GZV3 whole entry): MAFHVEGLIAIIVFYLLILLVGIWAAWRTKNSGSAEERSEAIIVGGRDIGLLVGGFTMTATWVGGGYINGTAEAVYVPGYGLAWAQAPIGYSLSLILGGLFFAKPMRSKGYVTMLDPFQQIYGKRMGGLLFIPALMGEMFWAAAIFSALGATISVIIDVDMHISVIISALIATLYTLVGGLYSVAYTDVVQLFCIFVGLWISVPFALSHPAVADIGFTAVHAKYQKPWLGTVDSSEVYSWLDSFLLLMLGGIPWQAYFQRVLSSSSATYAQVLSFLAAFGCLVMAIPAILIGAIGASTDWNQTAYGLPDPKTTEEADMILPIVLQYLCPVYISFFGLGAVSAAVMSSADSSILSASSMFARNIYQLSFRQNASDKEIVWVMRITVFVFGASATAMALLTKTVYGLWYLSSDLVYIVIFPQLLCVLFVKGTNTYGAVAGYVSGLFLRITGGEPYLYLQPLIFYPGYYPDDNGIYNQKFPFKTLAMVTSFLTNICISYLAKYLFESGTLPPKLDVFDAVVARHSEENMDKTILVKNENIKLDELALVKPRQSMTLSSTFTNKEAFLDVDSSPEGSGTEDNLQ
Kind of data set: CHT inhibitors, dose response, cell-based, 5-point CRC, membrane potential dye (AID 504840). Format: functional.

The target of data set [8] is T3, Cytochrome P450 1A2 (Homo sapiens, UniProt P05177).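 Also: PubChem cytochrome P450 panel assay, CYP1A2 panel member.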
T3 sequence (P05177 whole entry): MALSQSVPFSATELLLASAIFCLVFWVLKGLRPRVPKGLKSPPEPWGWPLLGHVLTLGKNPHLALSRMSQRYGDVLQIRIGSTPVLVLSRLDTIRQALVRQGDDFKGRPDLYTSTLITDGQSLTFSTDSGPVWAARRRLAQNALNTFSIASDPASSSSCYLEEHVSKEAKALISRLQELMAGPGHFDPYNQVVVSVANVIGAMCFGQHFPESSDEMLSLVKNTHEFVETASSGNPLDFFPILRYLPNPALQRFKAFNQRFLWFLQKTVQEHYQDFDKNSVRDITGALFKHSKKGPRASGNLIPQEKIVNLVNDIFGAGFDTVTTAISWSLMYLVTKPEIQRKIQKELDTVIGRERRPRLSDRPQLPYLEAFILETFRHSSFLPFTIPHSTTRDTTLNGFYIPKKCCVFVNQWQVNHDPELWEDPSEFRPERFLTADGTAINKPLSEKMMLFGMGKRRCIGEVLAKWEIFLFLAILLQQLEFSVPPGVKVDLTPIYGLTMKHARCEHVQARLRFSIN

Data set [9] concerns the target Cytochrome P450 3A4 (Homo sapiens, UniProt P08684).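 Also: CYP3A4 tested as one member of a cytochrome P450 panel screen.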
For data set [10], the target named is Cytochrome P450 2C19 (Homo sapiens, UniProt P33261). In words: Cytochrome panel assay with activity outcomes. Panel member name: p450-cyp2c19 Compounds with AC50 equal or less than 10 uM are considered active. Format: functional.
Data set [11] in a line: cells. In kind it is functional, cell-based.
For data set [12], the target named is T4, Nuclear receptor subfamily 0 group B member 1 (Homo sapiens, UniProt P51843).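 Also: HEK293T cells transfected with SF-1 and DAX-1 plus StAR promoter luciferase reporter.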
T4 sequence (P51843 whole entry): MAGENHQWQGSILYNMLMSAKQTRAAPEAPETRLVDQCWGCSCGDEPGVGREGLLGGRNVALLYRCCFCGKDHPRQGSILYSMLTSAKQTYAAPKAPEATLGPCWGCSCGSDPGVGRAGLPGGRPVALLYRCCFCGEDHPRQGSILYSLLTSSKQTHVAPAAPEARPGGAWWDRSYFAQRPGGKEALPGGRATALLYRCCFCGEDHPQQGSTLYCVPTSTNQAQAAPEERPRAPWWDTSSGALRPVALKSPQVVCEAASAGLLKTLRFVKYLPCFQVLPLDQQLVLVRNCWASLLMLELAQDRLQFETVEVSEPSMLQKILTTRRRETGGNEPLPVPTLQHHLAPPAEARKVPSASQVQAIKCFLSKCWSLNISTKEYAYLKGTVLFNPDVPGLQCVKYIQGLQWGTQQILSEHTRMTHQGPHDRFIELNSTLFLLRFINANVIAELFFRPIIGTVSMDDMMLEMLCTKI
Format: functional, cell-based.

A short description of data set [13]: HEp-2 cell cytotoxicity, dose response, cytotoxicity control for RSV inhibitor project, HTS (AID 2410). Format: functional. The note with it: human respiratory syncytial virus.
Data set [14] concerns the target Cytochrome P450 2D6 (Homo sapiens, UniProt P10635).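 Also: CYP2D6 member of a cytochrome P450 panel assay.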
Data set [15] can be described thus: cells. Format: functional.
In data set [16] the target is T5, Rac GTPase-activating protein 1 (Homo sapiens, UniProt Q9H0H5).
T5 sequence (Q9H0H5 whole entry): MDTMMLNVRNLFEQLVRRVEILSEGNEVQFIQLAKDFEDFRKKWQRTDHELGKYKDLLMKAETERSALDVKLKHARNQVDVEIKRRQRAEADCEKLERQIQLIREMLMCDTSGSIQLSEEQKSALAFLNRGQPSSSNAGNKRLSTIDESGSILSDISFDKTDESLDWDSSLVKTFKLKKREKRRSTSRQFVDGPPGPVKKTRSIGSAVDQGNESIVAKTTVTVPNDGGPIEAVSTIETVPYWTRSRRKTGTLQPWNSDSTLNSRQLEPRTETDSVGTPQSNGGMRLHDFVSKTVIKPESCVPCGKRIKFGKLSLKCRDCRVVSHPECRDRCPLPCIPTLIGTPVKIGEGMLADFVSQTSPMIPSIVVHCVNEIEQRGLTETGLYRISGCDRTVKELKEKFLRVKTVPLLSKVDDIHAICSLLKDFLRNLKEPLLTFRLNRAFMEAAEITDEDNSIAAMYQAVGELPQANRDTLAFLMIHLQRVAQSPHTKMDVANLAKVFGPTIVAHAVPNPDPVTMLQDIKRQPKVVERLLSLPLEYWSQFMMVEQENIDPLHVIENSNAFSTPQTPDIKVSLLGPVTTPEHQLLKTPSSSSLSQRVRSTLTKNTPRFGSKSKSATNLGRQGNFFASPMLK
Kind of data set: MgcRacGAP GTPase-activating activity inhibitors, confirmation, biochemical, ADP Hunter fluorescence, primary and confirmatory (AID 624330). In kind it is functional.

Cytochrome P450 3A4, sequence (P08684 whole entry): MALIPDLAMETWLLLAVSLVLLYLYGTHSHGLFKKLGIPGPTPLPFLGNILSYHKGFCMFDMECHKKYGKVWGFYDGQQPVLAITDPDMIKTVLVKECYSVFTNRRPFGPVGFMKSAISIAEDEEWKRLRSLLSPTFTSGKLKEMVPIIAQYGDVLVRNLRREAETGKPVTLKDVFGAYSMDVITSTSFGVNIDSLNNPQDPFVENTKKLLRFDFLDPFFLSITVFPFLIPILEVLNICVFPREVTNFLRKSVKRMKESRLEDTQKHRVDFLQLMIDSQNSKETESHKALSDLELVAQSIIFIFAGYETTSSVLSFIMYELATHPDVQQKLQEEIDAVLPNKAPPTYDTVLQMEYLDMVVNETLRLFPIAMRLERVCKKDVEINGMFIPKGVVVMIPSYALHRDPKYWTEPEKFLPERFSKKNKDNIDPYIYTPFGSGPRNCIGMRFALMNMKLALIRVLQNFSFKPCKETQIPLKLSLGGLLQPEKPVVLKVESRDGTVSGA
Cytochrome P450 2D6, sequence (P10635 whole entry): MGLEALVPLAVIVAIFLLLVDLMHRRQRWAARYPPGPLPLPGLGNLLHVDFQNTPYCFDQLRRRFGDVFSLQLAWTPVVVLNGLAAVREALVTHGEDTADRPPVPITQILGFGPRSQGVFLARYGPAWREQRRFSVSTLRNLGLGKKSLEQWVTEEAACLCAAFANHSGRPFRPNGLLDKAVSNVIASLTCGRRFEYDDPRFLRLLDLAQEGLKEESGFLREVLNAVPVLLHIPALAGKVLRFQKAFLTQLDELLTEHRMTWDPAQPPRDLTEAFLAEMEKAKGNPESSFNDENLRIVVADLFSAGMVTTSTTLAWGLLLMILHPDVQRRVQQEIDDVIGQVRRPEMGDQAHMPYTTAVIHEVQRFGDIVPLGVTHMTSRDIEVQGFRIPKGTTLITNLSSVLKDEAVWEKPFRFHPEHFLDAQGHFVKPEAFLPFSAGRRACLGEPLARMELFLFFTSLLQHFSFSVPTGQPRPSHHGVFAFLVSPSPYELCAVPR
Large T antigen, sequence (P03070 whole entry): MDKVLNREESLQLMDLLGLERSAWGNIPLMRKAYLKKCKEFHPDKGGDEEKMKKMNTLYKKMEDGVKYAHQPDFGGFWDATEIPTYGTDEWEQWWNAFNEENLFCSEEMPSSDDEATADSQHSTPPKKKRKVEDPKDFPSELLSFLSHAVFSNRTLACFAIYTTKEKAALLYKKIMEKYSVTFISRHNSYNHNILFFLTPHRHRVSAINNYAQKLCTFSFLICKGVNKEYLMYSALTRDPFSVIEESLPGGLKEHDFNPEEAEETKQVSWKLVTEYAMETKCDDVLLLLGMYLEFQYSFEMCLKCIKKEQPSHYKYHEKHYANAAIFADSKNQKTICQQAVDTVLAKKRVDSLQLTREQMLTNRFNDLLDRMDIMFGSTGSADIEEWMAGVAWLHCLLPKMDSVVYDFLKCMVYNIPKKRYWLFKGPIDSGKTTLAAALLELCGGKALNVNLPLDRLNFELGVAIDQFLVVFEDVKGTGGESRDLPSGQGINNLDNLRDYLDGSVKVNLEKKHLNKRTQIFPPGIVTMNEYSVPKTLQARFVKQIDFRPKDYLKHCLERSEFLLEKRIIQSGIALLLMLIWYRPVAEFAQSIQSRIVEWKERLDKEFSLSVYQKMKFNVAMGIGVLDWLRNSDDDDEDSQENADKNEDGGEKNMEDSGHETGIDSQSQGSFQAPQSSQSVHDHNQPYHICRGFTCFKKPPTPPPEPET
Glyceraldehyde-3-phosphate dehydrogenase, sequence (P04406 whole entry): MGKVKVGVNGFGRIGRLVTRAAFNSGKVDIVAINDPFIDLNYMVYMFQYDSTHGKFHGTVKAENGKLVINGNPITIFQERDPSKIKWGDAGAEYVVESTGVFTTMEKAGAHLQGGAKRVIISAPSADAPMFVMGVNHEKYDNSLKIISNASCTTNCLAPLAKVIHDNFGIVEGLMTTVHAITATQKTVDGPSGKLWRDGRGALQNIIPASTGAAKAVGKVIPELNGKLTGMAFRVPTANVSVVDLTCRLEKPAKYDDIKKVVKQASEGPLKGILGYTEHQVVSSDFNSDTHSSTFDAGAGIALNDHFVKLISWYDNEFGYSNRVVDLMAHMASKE
Cytochrome P450 2C19, sequence (P33261 whole entry): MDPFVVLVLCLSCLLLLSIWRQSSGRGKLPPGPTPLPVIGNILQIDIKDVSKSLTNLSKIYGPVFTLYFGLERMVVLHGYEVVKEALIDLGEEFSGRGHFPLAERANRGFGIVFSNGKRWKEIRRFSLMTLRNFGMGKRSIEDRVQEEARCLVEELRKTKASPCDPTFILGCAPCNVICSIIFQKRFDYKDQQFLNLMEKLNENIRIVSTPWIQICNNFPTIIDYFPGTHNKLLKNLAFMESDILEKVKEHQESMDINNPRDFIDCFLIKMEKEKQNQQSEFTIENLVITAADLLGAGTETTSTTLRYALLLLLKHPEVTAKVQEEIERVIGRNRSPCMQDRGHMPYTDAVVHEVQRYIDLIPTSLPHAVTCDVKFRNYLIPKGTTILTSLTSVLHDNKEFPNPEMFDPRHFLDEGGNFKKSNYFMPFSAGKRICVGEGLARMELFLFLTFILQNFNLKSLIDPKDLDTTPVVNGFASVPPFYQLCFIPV

The term IC50 denotes the concentration at which inhibition is half-maximal. For the compound `CN(C)c1ccc(NS(=O)(=O)c2cccc(Cl)c2)cc1`, the IC50 in data set [1] is 28.7 µM (active).

One may read the GI50 as the concentration giving 50% growth inhibition. With `Cc1c2c(cc3c1[nH]c1ccccc13)C=NCC2`, the values for the GI50 in data set [2], in data set [3] and in data set [4] were 8 µM (inactive), 6.98 µM (inactive) and 6.93 µM (inactive), respectively. Consider `CN(C)C1=C(Cl)C(=O)N(c2ccc(Cl)nc2)C1=O`, for which the IC50 in data set [5] is > 50 µM (inconclusive). On to `CC(C)Cn1c(-c2ccc(Br)cc2)cnc1S`, for which the concentration for half-maximal inhibition (IC50) in data set [6] was 12.1 µM (active). For `CCCc1cc2c(=O)c(-c3ccccn3)c(C)oc2cc1O`, in data set [7], the IC50 was 12.3 µM (active). The AC50 is the concentration at which the activity in the assay is half-maximal. Consider `O=C(Nc1cccc(F)c1)N1CC2(CCN(C(=O)Oc3ccccc3)CC2)C1`, for which the AC50 in [8] is 12.6 µM (inconclusive); in [9], “inconclusive”.

On to `CCCCOc1ccc(OCCCCCCCCCC[N+](C)(C)C)cc1`, for which the GI50 in data set [2] is 7.05 µM (inactive); in [3] it was 1.61 µM (inactive); in [4], 0.94 µM (active). Consider `CC(=O)NC1=C[C@@H]([C@H]2COC(C)(C)O2)OC1=O`, for which the GI50 in [2], in [3] and in data set [4] was > 100 µM (inactive) each time. As for `CCN1CCCC1CNC(=O)C(=O)Nc1ccc(OC)cc1` (stereo not drawn), the AC50 entry in [10] and in data set [9] was “inconclusive” each time.

With `C=C(OC1C(C)=C2C(C1OC(=O)CCCCCCC)C(C)(OC(C)=O)CC(OC(=O)CCC)C1(O)C2OC(=O)C1(C)O)/C(C)=C/C` (stereo not drawn), the concentration for 50% growth inhibition (GI50) in [2] was 0.0251 µM (active); in [3], 0.0125 µM (active); in [4], 0.0125 µM (active).

For the compound `Cc1ccc(C)c(-c2nc3ccc(N)cc3[nH]2)c1`, the IC50 in data set [1] was 83.7 µM (active). Turning to `CN(C)C(=O)c1c(-c2ccccc2)oc2ccc(O)cc12`, the IC50 in data set [1] is 46.6 µM (active). For the compound `COc1cc(OC)c2c(-c3cccc(-c4ccc(NC(C)=O)cc4)c3)cc(=O)oc2c1`, the IC50 in data set [11] and in data set [12] was > 67.5 µM (inactive) each time. Usually CC50 stands for the concentration at which the toxic effect on the cells reaches its halfway point. As for `O=C(c1ccc2c(c1)OCCO2)C1CCN(S(=O)(=O)c2ccccc2F)CC1`, the CC50 in data set [13] was > 50 µM (active). The values for the AC50 in data set [14], in [8] and in data set [9] were 0.0316 µM (inconclusive), 5.01 µM (inconclusive) and “inconclusive”, respectively.

Regarding `Cn1c(-c2ccccc2O)cc2ccccc21`, the half-inhibitory concentration (IC50) in data set [7] was 13.2 µM (active). As for `Cc1nc2ccccc2[nH]c(=O)c1=NNc1ccc([N+](=O)[O-])cc1`, the IC50 in data set [6] is on record as 12.3 µM (not active).

Take `Oc1ccc(Br)cc1/C=N/c1ccc(Cl)cc1`: the IC50 in [6] is listed as 43.8 µM (not active).

As to `CCCC(=O)Nc1nc2n(n1)C(c1ccccc1)CC(=O)N2` (stereo not drawn), the AC50 entry in data set [9] is given as “inconclusive”. Take `CSc1nc(NC2OCC(O)C(O)C2O)c(N)c(=O)[nH]1` (stereo not drawn): the GI50 in data set [2], in [3] and in data set [4] was > 100 µM (inactive) in each case. For `O=C(c1cccc(F)c1)N1CCC2(CC1)CCN(c1ncccn1)CC2`, the AC50 in data set [10] (read-out: AC50) is 39.8 µM (inconclusive); in [14], 15.8 µM (inconclusive); in data set [8] it was 10 µM (inconclusive); in data set [9], “inconclusive”.

As for `Cc1ccc(-c2nnc(C)c(N3CCCC3)n2)cc1`, the IC50 in data set [15] is 13.2 µM (active). As to `Nc1ccn([C@@H]2C=C(CO)[C@@H](O)[C@H]2O)c(=O)n1`, the figures for the GI50 in [2], in data set [3] and in data set [4] were 0.0619 µM (active), 0.104 µM (active) and 0.0752 µM (active), respectively. Consider `CN1CCCC(CC2Oc3ccccc3Sc3ccccc32)C1` (stereo not drawn), for which, in data set [7], the IC50 was 15.8 µM (active). For the compound `CCOc1ccc(NC(=NCc2ccc3c(c2)OCO3)SC2CC(=O)N(c3ccc(OCC)cc3)C2=O)cc1` (stereo not drawn), the concentration for half-maximal inhibition (IC50) in [6] is reported as > 50 µM (not active). For the compound `O=C1C(Cl)=C(N2CCN(c3ccccc3)CC2)C(=O)N1c1ccc(Cl)nc1`, in data set [5], the IC50 is > 50 µM (inconclusive). In the case of `FC(F)(F)c1ccccc1-c1cc(NCc2ccccc2)ncn1`, the AC50 is 39.8 µM (inconclusive) in [14] and “inconclusive” in data set [9]. In the case of `Nc1[nH]cnc2ncnc1-2` [ADENINE], the GI50 in data set [2] was 79.3 µM (inactive); in data set [3] it was 213 µM (inactive); in data set [4], 64.9 µM (inactive). Take `CN1CCN(C(=O)c2ccc3c(Cl)c4c(nc3c2)CCCC4)CC1`: the IC50 in data set [11] and in data set [12] was > 67.6 µM (inactive) each time. Take `Cc1cc(NC(=O)NC(=O)c2ccccc2F)no1`: the IC50 in data set [11] and in [12] was > 67.5 µM (inactive) each time.

Regarding `COc1cc(/C=C(\C#N)c2nc3ccccc3n2C)cc(OC)c1O`, the IC50 in data set [1] is 9.81 µM (active). For the compound `N=C(N)Nc1ncccc1[N+](=O)[O-]`, the GI50 was 32.9 µM (inactive) in data set [2], > 100 µM (inactive) in [3] and 40.2 µM (inactive) in [4]. On to `O=C1C=C(Nc2ccc(O)cc2)CC(c2ccco2)C1` (stereo not drawn), for which the IC50 in [1] was 9.14 µM (active); in [16], 19.6 µM (active).

For `CCC(CC)C(=O)c1c[nH]c(C(=O)NCCCN2CCOCC2)c1`, the figures for the AC50 in data set [8] and in data set [9] were 25.1 µM (inconclusive) and “inconclusive”, respectively.

Source of the values: ChEMBL document CHEMBL1201862, “PubChem BioAssay data set” (2004).
